The values that follow come from ChEMBL document CHEMBL3991601, “The target landscape of clinical kinase drugs” (Science, 2017).

Active and inactive are the calls of the source. Cut-off read from the data, not from the text of the source, for most assays here: actives have a measured Kd and inactives only a lower limit.

In assay [1] the target is T1, EKC/KEOPS complex subunit TP53RK (Homo sapiens, UniProt Q96S44).
T1 sequence (Q96S44 whole entry): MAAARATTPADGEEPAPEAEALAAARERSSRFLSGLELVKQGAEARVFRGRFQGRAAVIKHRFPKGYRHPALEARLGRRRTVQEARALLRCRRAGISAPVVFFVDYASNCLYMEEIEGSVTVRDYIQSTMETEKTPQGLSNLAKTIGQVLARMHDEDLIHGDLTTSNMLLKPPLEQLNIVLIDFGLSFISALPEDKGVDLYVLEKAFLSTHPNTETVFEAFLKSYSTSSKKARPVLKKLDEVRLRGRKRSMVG

For assay [2], the target named is T2, General transcription and DNA repair factor IIH helicase subunit XPD (Homo sapiens, UniProt P18074).
T2 sequence (P18074 whole entry): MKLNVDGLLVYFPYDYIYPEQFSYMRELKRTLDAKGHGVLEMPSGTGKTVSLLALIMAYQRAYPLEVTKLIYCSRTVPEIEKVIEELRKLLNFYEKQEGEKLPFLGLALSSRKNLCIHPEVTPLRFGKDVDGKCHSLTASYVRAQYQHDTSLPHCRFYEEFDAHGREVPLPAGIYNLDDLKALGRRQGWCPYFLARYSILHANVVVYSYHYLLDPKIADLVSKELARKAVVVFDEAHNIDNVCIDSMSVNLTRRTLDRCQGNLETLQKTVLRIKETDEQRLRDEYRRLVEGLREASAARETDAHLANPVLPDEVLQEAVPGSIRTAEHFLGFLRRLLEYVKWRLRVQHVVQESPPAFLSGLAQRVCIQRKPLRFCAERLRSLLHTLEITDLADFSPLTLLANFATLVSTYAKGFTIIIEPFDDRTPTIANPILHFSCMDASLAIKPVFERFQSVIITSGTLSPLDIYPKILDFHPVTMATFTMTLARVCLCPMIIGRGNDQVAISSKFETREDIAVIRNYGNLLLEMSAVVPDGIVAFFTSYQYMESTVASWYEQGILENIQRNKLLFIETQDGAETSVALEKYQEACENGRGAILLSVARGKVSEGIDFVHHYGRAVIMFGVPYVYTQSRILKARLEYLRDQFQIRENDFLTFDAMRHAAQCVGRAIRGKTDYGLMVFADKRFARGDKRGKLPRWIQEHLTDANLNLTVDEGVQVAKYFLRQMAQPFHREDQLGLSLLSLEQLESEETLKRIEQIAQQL
As to conditions: read-out: Kd apparent; k-562, colo 205, sk-n-be(2) and mv-4-11.

In assay [3] the target is T3, ATP-dependent RNA helicase DDX1 (Homo sapiens, UniProt Q92499).
T3 sequence (Q92499 whole entry): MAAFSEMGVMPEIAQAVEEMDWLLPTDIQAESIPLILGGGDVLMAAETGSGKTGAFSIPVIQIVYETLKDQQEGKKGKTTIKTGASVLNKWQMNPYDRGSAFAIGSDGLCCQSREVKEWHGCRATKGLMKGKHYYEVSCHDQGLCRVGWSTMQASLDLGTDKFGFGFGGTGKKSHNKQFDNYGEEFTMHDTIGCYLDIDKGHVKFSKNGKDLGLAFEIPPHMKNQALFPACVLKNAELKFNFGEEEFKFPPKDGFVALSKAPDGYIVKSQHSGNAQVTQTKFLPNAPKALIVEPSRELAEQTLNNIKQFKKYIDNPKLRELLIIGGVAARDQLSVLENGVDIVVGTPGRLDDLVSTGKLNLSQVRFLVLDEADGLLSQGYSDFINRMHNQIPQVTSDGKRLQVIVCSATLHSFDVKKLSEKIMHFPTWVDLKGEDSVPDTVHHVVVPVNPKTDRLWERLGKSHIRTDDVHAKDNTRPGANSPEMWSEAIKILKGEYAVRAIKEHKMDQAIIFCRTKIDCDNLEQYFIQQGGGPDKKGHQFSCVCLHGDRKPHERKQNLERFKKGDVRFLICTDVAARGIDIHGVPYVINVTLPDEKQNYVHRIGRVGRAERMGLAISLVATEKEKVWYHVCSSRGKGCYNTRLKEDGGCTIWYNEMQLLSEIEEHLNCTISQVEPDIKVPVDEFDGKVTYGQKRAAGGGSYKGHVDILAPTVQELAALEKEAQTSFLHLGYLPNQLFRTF

Assay [4] concerns the target T4, Serine/threonine-protein kinase LATS1 (Homo sapiens, UniProt O95835).
T4 sequence (O95835 whole entry): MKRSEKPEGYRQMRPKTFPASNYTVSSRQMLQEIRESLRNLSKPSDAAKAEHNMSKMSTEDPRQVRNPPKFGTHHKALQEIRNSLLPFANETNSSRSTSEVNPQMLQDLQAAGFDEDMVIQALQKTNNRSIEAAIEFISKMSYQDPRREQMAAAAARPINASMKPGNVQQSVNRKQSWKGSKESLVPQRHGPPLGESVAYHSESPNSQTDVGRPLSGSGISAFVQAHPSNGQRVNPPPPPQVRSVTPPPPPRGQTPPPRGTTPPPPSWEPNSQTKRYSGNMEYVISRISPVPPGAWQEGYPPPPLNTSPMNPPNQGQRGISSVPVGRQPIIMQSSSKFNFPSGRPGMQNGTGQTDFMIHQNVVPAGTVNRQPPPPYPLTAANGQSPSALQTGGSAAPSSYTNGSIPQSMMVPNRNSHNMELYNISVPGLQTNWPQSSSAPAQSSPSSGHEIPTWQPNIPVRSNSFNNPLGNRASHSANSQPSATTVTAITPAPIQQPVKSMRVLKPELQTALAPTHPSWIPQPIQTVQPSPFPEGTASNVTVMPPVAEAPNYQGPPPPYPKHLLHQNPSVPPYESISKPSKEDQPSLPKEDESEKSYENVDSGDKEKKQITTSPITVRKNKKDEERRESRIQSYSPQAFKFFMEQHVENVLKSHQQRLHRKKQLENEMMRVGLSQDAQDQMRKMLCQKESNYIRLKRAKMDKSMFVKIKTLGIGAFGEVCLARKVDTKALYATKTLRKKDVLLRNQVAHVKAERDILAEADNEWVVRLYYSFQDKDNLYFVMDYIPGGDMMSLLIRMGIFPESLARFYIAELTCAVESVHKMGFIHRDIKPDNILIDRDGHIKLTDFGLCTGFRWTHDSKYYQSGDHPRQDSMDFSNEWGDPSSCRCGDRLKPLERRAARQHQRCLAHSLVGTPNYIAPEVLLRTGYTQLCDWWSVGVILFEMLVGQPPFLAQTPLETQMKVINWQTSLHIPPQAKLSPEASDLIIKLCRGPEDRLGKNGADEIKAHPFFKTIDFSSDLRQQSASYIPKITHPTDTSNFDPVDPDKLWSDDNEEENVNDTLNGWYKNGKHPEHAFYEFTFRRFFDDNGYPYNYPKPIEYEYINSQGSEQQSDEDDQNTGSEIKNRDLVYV

Assay [5] deals with Serine/threonine-protein kinase PAK 4 (Homo sapiens, UniProt O96013).
Serine/threonine-protein kinase PAK 4, sequence (O96013 whole entry): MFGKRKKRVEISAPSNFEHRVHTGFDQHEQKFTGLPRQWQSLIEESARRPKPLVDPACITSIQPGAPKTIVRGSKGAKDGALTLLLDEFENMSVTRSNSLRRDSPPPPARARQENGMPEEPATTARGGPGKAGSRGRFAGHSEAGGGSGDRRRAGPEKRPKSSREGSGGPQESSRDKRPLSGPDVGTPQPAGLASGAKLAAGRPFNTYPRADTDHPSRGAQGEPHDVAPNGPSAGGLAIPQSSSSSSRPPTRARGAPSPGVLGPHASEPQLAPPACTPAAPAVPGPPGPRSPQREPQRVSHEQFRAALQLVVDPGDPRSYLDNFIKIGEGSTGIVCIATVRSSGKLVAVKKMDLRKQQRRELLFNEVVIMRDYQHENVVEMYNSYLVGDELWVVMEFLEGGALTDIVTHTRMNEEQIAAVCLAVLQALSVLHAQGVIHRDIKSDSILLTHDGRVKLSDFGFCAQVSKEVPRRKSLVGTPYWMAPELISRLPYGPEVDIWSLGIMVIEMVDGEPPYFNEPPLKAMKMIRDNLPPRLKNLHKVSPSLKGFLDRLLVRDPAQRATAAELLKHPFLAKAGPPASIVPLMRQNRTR
Assay [6] has as its target Ribosomal protein S6 kinase alpha-3 (Homo sapiens, UniProt P51812).
Note: in the data inactive means no Kd found up to 30 µM.

Ribosomal protein S6 kinase alpha-3, sequence (P51812 whole entry): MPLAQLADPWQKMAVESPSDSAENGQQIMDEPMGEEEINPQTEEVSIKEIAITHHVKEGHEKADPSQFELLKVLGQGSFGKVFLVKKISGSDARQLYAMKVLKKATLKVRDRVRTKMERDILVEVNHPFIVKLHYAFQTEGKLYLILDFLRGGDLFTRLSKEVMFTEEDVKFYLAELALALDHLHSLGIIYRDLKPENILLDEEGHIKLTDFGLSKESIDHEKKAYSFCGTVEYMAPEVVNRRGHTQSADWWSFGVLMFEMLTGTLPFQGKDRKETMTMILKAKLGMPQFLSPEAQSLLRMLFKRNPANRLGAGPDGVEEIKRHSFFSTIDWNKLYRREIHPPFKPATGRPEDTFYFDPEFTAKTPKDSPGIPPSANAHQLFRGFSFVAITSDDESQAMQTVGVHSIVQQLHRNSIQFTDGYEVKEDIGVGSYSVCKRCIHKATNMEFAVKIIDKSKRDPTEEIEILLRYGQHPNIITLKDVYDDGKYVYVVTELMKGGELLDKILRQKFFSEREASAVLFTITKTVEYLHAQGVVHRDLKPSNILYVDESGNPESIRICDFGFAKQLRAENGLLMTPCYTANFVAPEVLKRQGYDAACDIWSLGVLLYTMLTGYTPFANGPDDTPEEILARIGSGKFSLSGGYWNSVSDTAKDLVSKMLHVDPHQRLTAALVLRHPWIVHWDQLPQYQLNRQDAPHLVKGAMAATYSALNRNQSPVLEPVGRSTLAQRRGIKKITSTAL

Take `Cn1c(=O)n(-c2ccc(C(C)(C)C#N)cc2)c2c3cc(-c4cnc5ccccc5c4)ccc3ncc21` [DACTOLISIB]: the Kd in assay [1], in assay [2] and in assay [3] was > 30 µM (inactive) each time.

In the case of `C[C@@]1(C(=O)Nc2ccc(F)nc2)CCCN1c1nc(Nc2cc(C3CC3)n[nH]2)c2cccn2n1` [BMS-754807], the Kd in assay [1], in assay [2] and in assay [3] was > 30 µM (inactive) throughout.

As to `CN(c1ncccc1CNc1nc(Nc2ccc3c(c2)CC(=O)N3)ncc1C(F)(F)F)S(C)(=O)=O` [PF-00562271], the Kd in assay [1] is > 30 µM (inactive); in assay [2] it was 2.64 µM (active); in assay [3] it was > 30 µM (inactive); in assay [4], > 30 µM (inactive).

On to `N#CCNC(=O)c1ccc(-c2ccnc(Nc3ccc(N4CCOCC4)cc3)n2)cc1` [MOMELOTINIB], for which the Kd in assay [1], in assay [5], in assay [3] and in assay [6] was > 30 µM (inactive) each time.

As for `COc1cc2c(Oc3ccc4[nH]c(C)cc4c3F)ncnc2cc1OCCCN1CCCC1` [CEDIRANIB], the Kd in assay [1] and in assay [3] was > 30 µM (inactive) each time.

With `Cn1cnc2c(F)c(Nc3ccc(Br)cc3Cl)c(C(=O)NOCCO)cc21` [SELUMETINIB], the Kd in assay [1], in assay [2] and in assay [3] was > 30 µM (inactive) throughout.

Turning to `COc1cc2c(N3CCN(C(=O)Nc4ccc(OC(C)C)cc4)CC3)ncnc2cc1OCCCN1CCCCC1` [TANDUTINIB], the Kd in assay [1], in assay [2] and in assay [3] was > 30 µM (inactive) each time.

With `C=CC(=O)Nc1cc(Nc2nccc(-c3cn(C)c4ccccc34)n2)c(OC)cc1N(C)CCN(C)C` [OSIMERTINIB], the Kd in assay [1], in assay [5], in assay [3], in assay [4] and in assay [6] was > 30 µM (inactive) in each case.

Take `CCN(CCCOc1ccc2c(Nc3cc(CC(=O)Nc4cccc(F)c4)n[nH]3)ncnc2c1)CCOP(=O)(O)O` [BARASERTIB]: the Kd in assay [1], in assay [2], in assay [3] and in assay [4] was > 30 µM (inactive) throughout.

In the case of `COc1cccc(Nc2ncnn3ccc(CN4CC[C@@H](N)[C@H](O)C4)c23)c1` [BMS-690514], the Kd in assay [1], in assay [5], in assay [3], in assay [4] and in assay [6] was > 30 µM (inactive) throughout.

In the case of `CC1(C)CNc2cc(NC(=O)c3cccnc3NCc3ccncc3)ccc21` [MOTESANIB], the Kd in assay [1], in assay [2] and in assay [3] was > 30 µM (inactive) in each case.

For `FC(F)(F)c1ccc(CNc2ccc(Cc3c[nH]c4ncc(Cl)cc34)cn2)cn1` [PEXIDARTINIB], the Kd in assay [1], in assay [5], in assay [3], in assay [4] and in assay [6] was > 30 µM (inactive) throughout.

On to `CC(C)(O)CC(=O)NCCn1ccc2ncnc(Nc3ccc(Oc4cccc(C(F)(F)F)c4)c(Cl)c3)c21` [TAK-285], for which the Kd in assay [1], in assay [5], in assay [3], in assay [4] and in assay [6] was > 30 µM (inactive) each time.

On to `C=CCn1c(=O)c2cnc(Nc3ccc(N4CCN(C)CC4)cc3)nc2n1-c1cccc(C(C)(C)O)n1` [ADAVOSERTIB], for which the Kd in assay [1], in assay [2], in assay [3] and in assay [4] was > 30 µM (inactive) each time.

Regarding `CN(C)C/C=C/C(=O)Nc1cc2c(Nc3ccc(F)c(Cl)c3)ncnc2cc1O[C@H]1CCOC1` [AFATINIB], the Kd in assay [1], in assay [2] and in assay [3] was > 30 µM (inactive) each time.

Turning to `O=S(=O)(c1cccc2cnccc12)N1CCCNCC1` [FASUDIL], the Kd in assay [1], in assay [2], in assay [5] and in assay [3] was > 30 µM (inactive) each time.

Take `C[C@]1(O)C[C@@H](c2nc(-c3ccc4ccc(-c5ccccc5)nc4c3)c3c(N)nccn32)C1` [LINSITINIB]: the Kd in assay [1], in assay [2] and in assay [3] was > 30 µM (inactive) throughout.

As for `O=C(NOC[C@H](O)CO)c1ccc(F)c(F)c1Nc1ccc(I)cc1F` [MIRDAMETINIB], the Kd in assay [1], in assay [2], in assay [5], in assay [3] and in assay [6] was > 30 µM (inactive) throughout.

As to `CC1(COc2ccc3c(c2)ncn3-c2ccc3cccc(N4CCC(N)CC4)c3n2)COC1` [CRENOLANIB], the Kd in assay [1] is > 30 µM (inactive); in assay [2], > 30 µM (inactive); in assay [3], > 30 µM (inactive); in assay [4] it was 2.77 µM (active); in assay [6] it was > 30 µM (inactive).
